# Legend:
# [1] = test system: ERβ-GFP; details: COS7 cells; 1 nM E2 or 1 μM AB-1; 15 min
# [2] = test system: FOXO3a-GFP; assay: FOXO3a translocation in MCF-7 cells; details: E2 10 nM, G-1 100 nM, AB-1 1 μM, EGF 50 ng/mL
# [3] = test system: uterus of ovariectomized mice; assay: Mouse uterine estrogenicity: uterine wet weight; format: in vivo; details: dose of 10 ng; subcutaneous; 18 h
# [4] = test system: ERβ-GFP; details: COS7 cells; 1 nM E2 or 1 μM AB-1
# [5] = test system: ERβ-GFP
# [6] = test system: GPER over ERα; details: ref Dennis et al., 2011; cited from earlier work
# [7] = target: T1, ERα (Homo sapiens, UniProt P03372); details: MCF-7 cells; 24 h; Western blot
# T1 sequence (P03372 1-595): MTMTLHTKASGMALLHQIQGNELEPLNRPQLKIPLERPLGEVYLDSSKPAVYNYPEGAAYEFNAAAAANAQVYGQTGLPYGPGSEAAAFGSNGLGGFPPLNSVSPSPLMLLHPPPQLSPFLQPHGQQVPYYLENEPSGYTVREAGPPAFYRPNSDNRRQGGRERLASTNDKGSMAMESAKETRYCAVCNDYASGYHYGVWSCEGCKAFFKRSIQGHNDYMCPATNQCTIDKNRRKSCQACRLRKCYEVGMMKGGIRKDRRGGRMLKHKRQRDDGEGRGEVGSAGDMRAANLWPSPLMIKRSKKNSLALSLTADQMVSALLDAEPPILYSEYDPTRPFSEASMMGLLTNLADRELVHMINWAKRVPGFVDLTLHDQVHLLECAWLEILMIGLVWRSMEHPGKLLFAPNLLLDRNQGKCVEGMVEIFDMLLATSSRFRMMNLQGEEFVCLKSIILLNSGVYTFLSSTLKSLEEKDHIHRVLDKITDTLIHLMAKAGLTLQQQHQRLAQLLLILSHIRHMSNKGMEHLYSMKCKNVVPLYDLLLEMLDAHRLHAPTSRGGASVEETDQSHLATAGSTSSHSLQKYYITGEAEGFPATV
# [8] = test system: ERα over ERβ; details: ref Stauffer et al., 2000; cited from earlier work
compound,measurement,setting,value
"C[C@]12CC[C@@H]3c4ccc(O)cc4CC[C@H]3[C@@H]1CC[C@@H]2O [E2, 17β-estradiol]","PI3K activation (nuclear translocation of PH-mRFP1), ERβ",[1],induced strong nuclear localization of the PH-mRFP1 reporter
same,FOXO3a translocation from nucleus to cytoplasm,[2],stimulated cytosolic translocation
same,Imbibition response,[3],strong imbibition response
same,"Induction of calcium mobilization, ERβ",[4],induced rapid calcium mobilization
same,Block of E2-Alexa633 binding to ERβ-GFP (confocal),[5],blocked binding of E2-Alexa633
CC(=O)c1ccc2c(c1)[C@@H]1C=CC[C@@H]1[C@H](c1cc3c(cc1Br)OCO3)N2 [G-1],FOXO3a translocation from nucleus to cytoplasm,[2],stimulated cytosolic translocation
same,Selectivity for GPER over ERα,[6],> 10^5 fold
"C[C@]12CC[C@@H]3c4ccc(O)cc4C[C@@H](CCCCCCCCC[S+]([O-])CCCC(F)(F)C(F)(F)F)[C@H]3[C@@H]1CC[C@@H]2O (stereo partly shown) [ICI182,780]",Effect on ERα levels,[7],potently decreased
CCCc1c(-c2ccc(O)cc2)nn(-c2ccc(O)cc2)c1-c1ccc(O)cc1 [PPT],Selectivity for ERα over ERβ,[8],about 400 fold
"EGF: growth factor that stimulates the PI3K pathway (NSDSECPLSHDGYCLHDGVCMYIEALDKYACNCVVGYIGERCQYRDLKWWELR; UniProt P01133 971-1023, looked up)",FOXO3a translocation from nucleus to cytoplasm,[2],translocated from the nucleus to the cytoplasm

# Reference: paper PMC6925632 (Cell chemical biology, 2019)
